Results reported in patent publication US4478844A, “Bradycardiac or analgesic 2-(N-(thienyl-2-methyl)-N-(2-fluoro-6-methyl-phenyl)-amino)-2-imidazolin e and salts thereof” (Boehringer Ingelheim KG, priority 1979, dated 1984).

Legend:
mouse [1] = assay: Analgesic activity, writhing test (mouse); type: in vivo
Experimental: (§1) The end product of Example 1, i.e. 2-[N-(2-fluoro-6-bromo-phenyl)-N-(thienyl-2-methyl)-amino]-2-imidazoline (A), and [N-2,6-dibromo-phenyl)-N-(thienyl-2-methyl)-amino]-2-imidazoline (B), disclosed in column 2, lines 47-48, of U.S. Pat. No. 3,937,717, were tested for analgesic activity and locomotion-inhibiting activity by the standard test methods described in the following literature references:
Analgesic activity: Ph. Linee, J. Pharmacol. (Paris) 3,4 513-515 (1972). Writhing test.

mouse [2] = assay: Locomotion-inhibiting activity (mouse); type: in vivo; conditions: sc, read-out: Locomotion inhibition (mouse) ED50 s.c.
Experimental: as §1
Locomotion--inhibiting activity: K. Stockhaus et al., Committee on Problems of Drug Dependence (1970) 6890-6898 National Academy of Sciences.

[3] = po, read-out: Writhing test (mouse) ED50 p.o.
[4] = sc, read-out: Writhing test (mouse) ED50 s.c.

| Structure (SMILES) | ED50 (mouse [1]; [3]) [mg/kg] | ED50 (mouse [1]; [4]) [mg/kg] | ED50 (mouse [2]) [mg/kg] |
| --- | --- | --- | --- |
| Brc1cccc(Br)c1N(Cc1cccs1)C1=NCCN1 [B] | 0.6 | 0.3 | 0.6 |
| Fc1cccc(Br)c1N(Cc1cccs1)C1=NCCN1 [A, 2-[N-(2-fluoro-6-bromo-phenyl)-N-(thienyl-2-methyl)-amino]-2-imidazoline] | 0.28 | 0.12 | 0.13 |
